Results as given in the supplement of paper PMC11061612.

What was measured:
[1] = test system: MN-60 (B-Lymphoblastic Leukemia); test: Bliss excess, mean over the matrix (fraction); higher = more synergy
Method in brief: (§1)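 Bliss excess equals the observed combination effect minus the expected value EA + EB − EA·EB, where EA and EB are the effects of each agent alone. Combination Emax is the second-highest inhibition within the matrix. Inhibition was scaled from CellTiter-Glo 2.0 luminescence, with 0 set by vehicle wells and 1 by blank wells, after 72 hours of two-drug dosing of cells plated in 1536-well plates.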

[2] = test system: OCI-AML3 (Acute Myeloid Leukemia); test: as above
Method in brief: as §1

Structure (SMILES)	Bliss excess [1]	Bliss excess [2]
Cc1c2c(nn1C)CSCc1cc(n(C)n1)CSc1cc(c3ccccc3c1)OCCCc1c(C(=O)O)n(C)c3c-2c(Cl)ccc13 [AZD5991] + CS(=O)(=O)CCNCc1ccc(-c2ccc3ncnc(Nc4ccc(OCc5cccc(F)c5)c(Cl)c4)c3c2)o1 [Lapatinib] (first compound max 1 µM, 7x7, partner max 10 µM)	-0.0584	-0.0516
N#Cc1cnc(Nc2cc(NC[C@H]3CNCCO3)c(C(F)(F)F)cn2)cn1 [SRA737] + O=c1[nH]cc(F)c(=O)[nH]1 [5-Fluorouracil] (first compound max 10 µM, 7x7, partner max 20 µM)	-0.0751	0.0646
O=C(c1cc(Cc2n[nH]c(=O)c3ccccc23)ccc1F)N1CCN(C(=O)C2CC2)CC1 [Olaparib] + COc1nnc2ccc(N3CCC(c4ccc(OCCN5CCN(C)C(=O)[C@H]5C)cc4)CC3)nn12 [AZD5153] (first compound max 10 µM, 7x7, partner max 1 µM)	-0.0721	-0.0369
C[C@@H](Oc1cc(-c2cnn(C3CCNCC3)c2)cnc1N)c1c(Cl)ccc(F)c1Cl [Crizotinib] + CC1=C(C(=CC=C1)Cl)NC(=O)C2=CN=C(S2)NC3=CC(=NC(=N3)C)N4CCN(CC4)CCO [Dasatinib] (first compound max 10 µM, 7x7, partner max 2 µM)	-0.0074	0.0207
C=CCn1c(=O)c2cnc(Nc3ccc(N4CCN(C)CC4)cc3)nc2n1-c1cccc(C(C)(C)O)n1 [AZD1775] + CCc1c2c(nc3ccc(O)cc13)-c1cc3c(c(=O)n1C2)COC(=O)[C@]3(O)CC [SN-38] (first compound max 1 µM, partner max 0.3 µM)	-0.0244	-0.103
C[C@@H](Nc1cc(F)cc(F)c1)c1cc(C(=O)N(C)C)cc2c(=O)cc(N3CCOCC3)oc12 [AZD8186] + C1CN(CCC1(C(=O)N[C@@H](CCO)C2=CC=C(C=C2)Cl)N)C3=NC=NC4=C3C=CN4 [AZD5363] (first compound max 10 µM, 7x7, partner max 10 µM)	-0.0655	0.031
C[C@@H](Oc1cc(-c2cnn(C3CCNCC3)c2)cnc1N)c1c(Cl)ccc(F)c1Cl [Crizotinib] + Cn1cnc2c(F)c(Nc3ccc(Br)cc3Cl)c(C(=O)NOCCO)cc21 [Selumetinib] (first compound max 10 µM, 7x7, partner max 10 µM)	-0.0797	-0.0401
C[C@@H](Nc1cc(F)cc(F)c1)c1cc(C(=O)N(C)C)cc2c(=O)cc(N3CCOCC3)oc12 [AZD8186] + CC(=O)c1c(C)c2cnc(Nc3ccc(N4CCNCC4)cn3)nc2n(C2CCCC2)c1=O [Palbociclib] (first compound max 10 µM, 7x7, partner max 10 µM)	-0.0082	0.0401
Cc1cc2ncnn2cc1Nc1ncc2c(n1)n(C1CCOCC1)c(=O)n2C [AZD7648] + COc1cc([C@@H]2c3cc4c(cc3[C@@H](O[C@@H]3O[C@@H]5CO[C@@H](C)O[C@H]5[C@H](O)[C@H]3O)[C@H]3COC(=O)[C@H]23)OCO4)cc(OC)c1O [Etoposide] (first compound max 10 µM, 7x7, partner max 10 µM)	0.06	0.123
CC1(C)CCC(CN2CCN(c3ccc(C(=O)NS(=O)(=O)c4ccc(NCC5CCOCC5)c([N+](=O)[O-])c4)c(Oc4cnc5[nH]ccc5c4)c3)CC2)=C(c2ccc(Cl)cc2)C1 [Venetoclax] + CS(=O)(=O)CCNCc1ccc(-c2ccc3ncnc(Nc4ccc(OCc5cccc(F)c5)c(Cl)c4)c3c2)o1 [Lapatinib] (first compound max 1 µM, 7x7, partner max 10 µM)	-0.0502	0.01
Cc1nc(-c2cn3c(n2)-c2ccc(-c4cnn(C(C)(C)C(N)=O)c4)cc2OCC3)n(C(C)C)n1 [Taselisib] + O=C(Nc1ccc2[nH]nc(-c3ccncc3)c2c1)[C@@H]1CCN(CC(=O)N2CCN(c3ccc(-c4ncccn4)cc3)CC2)C1 [SCH772984] (first compound max 10 µM, 7x7, partner max 5 µM)	-0.026	0.0661
N#Cc1cnc(Nc2cc(NC[C@H]3CNCCO3)c(C(F)(F)F)cn2)cn1 [SRA737] + C=CCn1c(=O)c2cnc(Nc3ccc(N4CCN(C)CC4)cc3)nc2n1-c1cccc(C(C)(C)O)n1 [AZD1775] (first compound max 10 µM, partner max 1 µM)	-0.0125	0.171
CN(CCO)CC[C@H](CSc1ccccc1)Nc1ccc(S(=O)(=O)NC(=O)c2ccc(N3CCC([C@@H](O)c4ccccc4-c4ccc(Cl)cc4)CC3)cc2)cc1S(=O)(=O)C(F)(F)F [AZD4320] + CC(=O)O[C@H]1C(=O)[C@@]2(C)[C@H]([C@H](OC(=O)c3ccccc3)[C@]3(O)C[C@H](OC(=O)[C@H](O)[C@@H](NC(=O)c4ccccc4)c4ccccc4)C(C)=C1C3(C)C)[C@]1(OC(C)=O)CO[C@@H]1C[C@@H]2O [Paclitaxel] (first compound max 1 µM, 7x7, partner max 3 µM)	0.0332	0.007
CN(CCO)CC[C@H](CSc1ccccc1)Nc1ccc(S(=O)(=O)NC(=O)c2ccc(N3CCC([C@@H](O)c4ccccc4-c4ccc(Cl)cc4)CC3)cc2)cc1S(=O)(=O)C(F)(F)F [AZD4320] + CS(=O)(=O)CCNCc1ccc(-c2ccc3ncnc(Nc4ccc(OCc5cccc(F)c5)c(Cl)c4)c3c2)o1 [Lapatinib] (first compound max 1 µM, 7x7, partner max 10 µM)	-0.0716	0.0258
O=C(c1cc(Cc2n[nH]c(=O)c3ccccc23)ccc1F)N1CCN(C(=O)C2CC2)CC1 [Olaparib] + Cc1c2c(nn1C)CSCc1cc(n(C)n1)CSc1cc(c3ccccc3c1)OCCCc1c(C(=O)O)n(C)c3c-2c(Cl)ccc13 [AZD5991] (first compound max 10 µM, 7x7, partner max 1 µM)	-0.0496	0.0224
O=C(c1cc(Cc2n[nH]c(=O)c3ccccc23)ccc1F)N1CCN(C(=O)C2CC2)CC1 [Olaparib] + CN(CC[C@H](CSC1=CC=CC=C1)NC2=C(C=C(C=C2)S(=O)(=O)NC(=O)C3=CC=C(C=C3)N4CCC(CC4)[C@H](C5=CC=CC=C5C6=CC=C(C=C6)Cl)O)S(=O)(=O)C(F)(F)F)CCO [AZD4320] (first compound max 10 µM, 7x7, partner max 1 µM)	-0.044	0.057
Cc1c2c(nn1C)CSCc1cc(n(C)n1)CSc1cc(c3ccccc3c1)OCCCc1c(C(=O)O)n(C)c3c-2c(Cl)ccc13 [AZD5991] + CC(=O)O[C@H]1C(=O)[C@@]2(C)[C@H]([C@H](OC(=O)c3ccccc3)[C@]3(O)C[C@H](OC(=O)[C@H](O)[C@@H](NC(=O)c4ccccc4)c4ccccc4)C(C)=C1C3(C)C)[C@]1(OC(C)=O)CO[C@@H]1C[C@@H]2O [Paclitaxel] (first compound max 1 µM, 7x7, partner max 3 µM)	-0.0293	0.0141
C[C@@H]1COCCN1c1cc(C2([S@](C)(=N)=O)CC2)nc(-c2ccnc3[nH]ccc23)n1 [AZD6738] + C1CC(C1)(C(=O)[O-])C(=O)[O-].N.N.[Pt+2] [Carboplatin] (first compound max 10 µM, 7x7, partner max 10 µM)	-0.119	-0.0326
